Measurements: ChEMBL document CHEMBL4130562, “Design, Synthesis, and Antibacterial Evaluation of Oxazolidinones with Fused Heterocyclic C-Ring Substructure” (ACS Med Chem Lett, 2017)
In brackets after ≈: the same amount, converted by molar mass.

Assays:
Type in all cases: functional
Streptococcus pneumoniae = test: Antibacterial activity against Streptococcus pneumoniae 55143 by microbroth dilution method
Haemophilus influenzae = test: Antibacterial activity against Haemophilus influenzae ATCC 49247 by microbroth dilution method
[1] = test system: Staphylococcus epidermidis; test: Antibacterial activity against Staphylococcus epidermidis ATCC 14990 by microbroth dilution method
Enterococcus faecium = test: Antibacterial activity against Enterococcus faecium 19434 by microbroth dilution method
Staphylococcus aureus [2] = test: Antibacterial activity against methicillin-resistant Staphylococcus aureus 1201984 by microbroth dilution method
Enterococcus faecalis = test: Antibacterial activity against Enterococcus faecalis ATCC 29212 by microbroth dilution method
Streptococcus pyogenes = test: Antibacterial activity against Streptococcus pyogenes ATCC 19615 by microbroth dilution method
Staphylococcus aureus [3] = test: Antibacterial activity against Staphylococcus aureus ATCC 29213 by microbroth dilution method
Staphylococcus aureus [4] = test: Antibacterial activity against Staphylococcus aureus ATCC 6538P by microbroth dilution method
Staphylococcus aureus [5] = test: Antibacterial activity against linezolid-resistant Staphylococcus aureus by microbroth dilution method
Staphylococcus aureus [6] = test: Antibacterial activity against Staphylococcus aureus ATCC 33591 by microbroth dilution method

| SMILES | MIC (Streptococcus pneumoniae) | MIC (Haemophilus influenzae) | MIC [1] | MIC (Enterococcus faecium) | MIC (Staphylococcus aureus [2]) | MIC (Enterococcus faecalis) | MIC (Streptococcus pyogenes) | MIC (Staphylococcus aureus [3]) | MIC (Staphylococcus aureus [4]) | MIC (Staphylococcus aureus [5]) | MIC (Staphylococcus aureus [6]) |
| --- | --- | --- | --- | --- | --- | --- | --- | --- | --- | --- | --- |
| O=C1COc2cc(-c3ccc(N4C[C@H](CO)OC4=O)cc3F)ccc2N1 | 2 µg/mL (≈ 5.58 µM) | 0.25 µg/mL (≈ 0.698 µM) | 0.5 µg/mL (≈ 1.4 µM) | 1 µg/mL (≈ 2.79 µM) | 0.5 µg/mL (≈ 1.4 µM) | 1 µg/mL (≈ 2.79 µM) | 2 µg/mL (≈ 5.58 µM) | 0.5 µg/mL (≈ 1.4 µM) | 0.5 µg/mL (≈ 1.4 µM) | 16 µg/mL (≈ 44.7 µM) | 0.5 µg/mL (≈ 1.4 µM) |
| O=C1COc2ccc(-c3ccc(N4C[C@H](CNC(=O)C5CC5)OC4=O)cc3F)cc2N1 | 0.5 µg/mL (≈ 1.18 µM) | 1 µg/mL (≈ 2.35 µM) | 0.25 µg/mL (≈ 0.588 µM) | 0.125 µg/mL (≈ 0.294 µM) | 1 µg/mL (≈ 2.35 µM) | 0.25 µg/mL (≈ 0.588 µM) | 0.5 µg/mL (≈ 1.18 µM) | 1 µg/mL (≈ 2.35 µM) | 0.25 µg/mL (≈ 0.588 µM) | 4 µg/mL (≈ 9.4 µM) | 1 µg/mL (≈ 2.35 µM) |
| O=C1COc2ccc(-c3ccc(N4C[C@H](CNC(=O)C(F)F)OC4=O)cc3F)cc2N1 | 0.25 µg/mL (≈ 0.574 µM) | 0.5 µg/mL (≈ 1.15 µM) | 0.125 µg/mL (≈ 0.287 µM) | 0.06 µg/mL (≈ 0.138 µM) | 0.5 µg/mL (≈ 1.15 µM) | 0.06 µg/mL (≈ 0.138 µM) | 0.25 µg/mL (≈ 0.574 µM) | 0.5 µg/mL (≈ 1.15 µM) | 0.125 µg/mL (≈ 0.287 µM) | 4 µg/mL (≈ 9.19 µM) | 0.5 µg/mL (≈ 1.15 µM) |
| CN[C@H](CC(C)C)C(=O)N[C@H]1C(=O)N[C@@H](CC(N)=O)C(=O)N[C@H]2C(=O)N[C@H]3C(=O)N[C@H](C(=O)N[C@H](C(=O)O)c4cc(O)cc(O)c4-c4cc3ccc4O)[C@H](O)c3ccc(c(Cl)c3)Oc3cc2cc(c3O[C@@H]2O[C@H](CO)[C@@H](O)[C@H](O)[C@H]2O[C@H]2C[C@](C)(N)[C@H](O)[C@H](C)O2)Oc2ccc(cc2Cl)[C@H]1O [VANCOMYCIN] | 2 µg/mL (≈ 1.38 µM) |  |  |  |  | 2 µg/mL (≈ 1.38 µM) | 2 µg/mL (≈ 1.38 µM) |  |  |  |  |
| O=C1O[C@@H](CO)CN1c1ccc(-c2ccc3c(c2)OCCO3)c(F)c1 | 0.5 µg/mL (≈ 1.45 µM) | 8 µg/mL (≈ 23.2 µM) | 0.06 µg/mL (≈ 0.174 µM) | 2 µg/mL (≈ 5.79 µM) | 32 µg/mL (≈ 92.7 µM) | 4 µg/mL (≈ 11.6 µM) | 0.5 µg/mL (≈ 1.45 µM) | 4 µg/mL (≈ 11.6 µM) | 1 µg/mL (≈ 2.9 µM) | > 32 µg/mL | 32 µg/mL (≈ 92.7 µM) |
| O=C1COc2cccc(-c3ccc(N4C[C@H](CO)OC4=O)cc3F)c2N1 | > 32 µg/mL | > 32 µg/mL | > 32 µg/mL | > 32 µg/mL | > 32 µg/mL | > 32 µg/mL | > 32 µg/mL | > 32 µg/mL | > 32 µg/mL | > 32 µg/mL | > 32 µg/mL |
| O=C1O[C@@H](CO)CN1c1ccc(-c2ccc3oc(=O)[nH]c3c2)c(F)c1 | 0.125 µg/mL (≈ 0.363 µM) | 4 µg/mL (≈ 11.6 µM) | < 0.06 µg/mL | 0.25 µg/mL (≈ 0.726 µM) | 32 µg/mL (≈ 92.9 µM) | 0.5 µg/mL (≈ 1.45 µM) | 0.125 µg/mL (≈ 0.363 µM) | 1 µg/mL (≈ 2.9 µM) | 0.25 µg/mL (≈ 0.726 µM) | 4 µg/mL (≈ 11.6 µM) | 32 µg/mL (≈ 92.9 µM) |
| O=C1COc2ccc(-c3ccc(N4C[C@H](CO)OC4=O)cc3F)nc2N1 | 0.25 µg/mL (≈ 0.696 µM) | 1 µg/mL (≈ 2.78 µM) | < 0.06 µg/mL | 0.25 µg/mL (≈ 0.696 µM) | 0.25 µg/mL (≈ 0.696 µM) | 0.25 µg/mL (≈ 0.696 µM) | 0.25 µg/mL (≈ 0.696 µM) | 0.5 µg/mL (≈ 1.39 µM) | 0.125 µg/mL (≈ 0.348 µM) | 4 µg/mL (≈ 11.1 µM) | 0.125 µg/mL (≈ 0.348 µM) |
| CC1(C)Oc2ccc(-c3ccc(N4C[C@H](CO)OC4=O)cc3F)cc2NC1=O | 0.25 µg/mL (≈ 0.647 µM) | 0.125 µg/mL (≈ 0.324 µM) | < 0.06 µg/mL | 0.25 µg/mL (≈ 0.647 µM) | 0.25 µg/mL (≈ 0.647 µM) | 0.5 µg/mL (≈ 1.29 µM) | 0.25 µg/mL (≈ 0.647 µM) | 0.25 µg/mL (≈ 0.647 µM) | 0.125 µg/mL (≈ 0.324 µM) | 16 µg/mL (≈ 41.4 µM) | 1 µg/mL (≈ 2.59 µM) |
| C[C@H]1COc2c(N3CCN(C)CC3)c(F)cc3c(=O)c(C(=O)O)cn1c23.C[C@H]1COc2c(N3CCN(C)CC3)c(F)cc3c(=O)c(C(=O)O)cn1c23.O [LEVOFLOXACIN] | 0.125 µg/mL | 0.06 µg/mL | 0.5 µg/mL | 4 µg/mL | 16 µg/mL | 0.25 µg/mL | 0.06 µg/mL | 0.125 µg/mL | 0.125 µg/mL | > 32 µg/mL | 0.25 µg/mL |
| O=C(CO)NC[C@H]1CN(c2ccc(-c3ccc4c(c3)NC(=O)CO4)c(F)c2)C(=O)O1 | 0.125 µg/mL (≈ 0.301 µM) | 0.5 µg/mL (≈ 1.2 µM) | 0.25 µg/mL (≈ 0.602 µM) | 0.06 µg/mL (≈ 0.144 µM) | 1 µg/mL (≈ 2.41 µM) | 0.06 µg/mL (≈ 0.144 µM) | 0.125 µg/mL (≈ 0.301 µM) | 1 µg/mL (≈ 2.41 µM) | 0.25 µg/mL (≈ 0.602 µM) | 4 µg/mL (≈ 9.63 µM) | 1 µg/mL (≈ 2.41 µM) |
| Cl.N=C(N)NC[C@H]1CN(c2ccc(-c3ccc4c(c3)NC(=O)CO4)c(F)c2)C(=O)O1 | > 32 µg/mL | > 32 µg/mL | > 32 µg/mL | > 32 µg/mL | > 32 µg/mL | > 32 µg/mL | > 32 µg/mL | > 32 µg/mL | > 32 µg/mL | > 32 µg/mL | > 32 µg/mL |
| COC(=O)NC[C@H]1CN(c2ccc(-c3ccc4c(c3)NC(=O)CO4)c(F)c2)C(=O)O1 | 0.06 µg/mL (≈ 0.144 µM) | 0.125 µg/mL (≈ 0.301 µM) | 0.06 µg/mL (≈ 0.144 µM) | 0.06 µg/mL (≈ 0.144 µM) | 0.06 µg/mL (≈ 0.144 µM) | 0.06 µg/mL (≈ 0.144 µM) | 0.06 µg/mL (≈ 0.144 µM) | 0.125 µg/mL (≈ 0.301 µM) | 0.06 µg/mL (≈ 0.144 µM) | 0.5 µg/mL (≈ 1.2 µM) | 0.125 µg/mL (≈ 0.301 µM) |
| O=C1O[C@@H](CO)CN1c1ccc(-c2ccc3c(c2)NC(=O)C2(CC2)O3)c(F)c1 | 0.25 µg/mL (≈ 0.65 µM) | 0.5 µg/mL (≈ 1.3 µM) | < 0.06 µg/mL | < 0.06 µg/mL | < 0.06 µg/mL | 0.125 µg/mL (≈ 0.325 µM) | 0.25 µg/mL (≈ 0.65 µM) | 0.25 µg/mL (≈ 0.65 µM) | < 0.06 µg/mL | 2 µg/mL (≈ 5.2 µM) | 0.5 µg/mL (≈ 1.3 µM) |
| CCC(=O)NC[C@H]1CN(c2ccc(-c3ccc4c(c3)NC(=O)CO4)c(F)c2)C(=O)O1 | 0.5 µg/mL (≈ 1.21 µM) | 0.25 µg/mL (≈ 0.605 µM) | 0.125 µg/mL (≈ 0.302 µM) | 0.06 µg/mL (≈ 0.145 µM) | 0.5 µg/mL (≈ 1.21 µM) | 0.25 µg/mL (≈ 0.605 µM) | 0.25 µg/mL (≈ 0.605 µM) | 0.25 µg/mL (≈ 0.605 µM) | 0.125 µg/mL (≈ 0.302 µM) | 1 µg/mL (≈ 2.42 µM) | 0.25 µg/mL (≈ 0.605 µM) |
| O=C1O[C@@H](CO)CN1c1ccc(-c2cnc3ccc(=O)[nH]c3c2)c(F)c1 | 0.25 µg/mL (≈ 0.704 µM) | 0.5 µg/mL (≈ 1.41 µM) | 0.25 µg/mL (≈ 0.704 µM) | 0.125 µg/mL (≈ 0.352 µM) | 16 µg/mL (≈ 45 µM) | 0.5 µg/mL (≈ 1.41 µM) | 0.25 µg/mL (≈ 0.704 µM) | 0.5 µg/mL (≈ 1.41 µM) | 0.25 µg/mL (≈ 0.704 µM) | 8 µg/mL (≈ 22.5 µM) | 0.25 µg/mL (≈ 0.704 µM) |
| O=C1COc2ccc(-c3ccc(N4C[C@H](CNC(=O)C5CCC5)OC4=O)cc3F)cc2N1 | 1 µg/mL (≈ 2.28 µM) | 1 µg/mL (≈ 2.28 µM) | 0.25 µg/mL (≈ 0.569 µM) | 0.06 µg/mL (≈ 0.137 µM) | 0.5 µg/mL (≈ 1.14 µM) | 0.06 µg/mL (≈ 0.137 µM) | 1 µg/mL (≈ 2.28 µM) | 0.5 µg/mL (≈ 1.14 µM) | 0.125 µg/mL (≈ 0.284 µM) | 2 µg/mL (≈ 4.55 µM) | 0.5 µg/mL (≈ 1.14 µM) |
| Cc1nc2ccc(-c3ccc(N4C[C@H](CO)OC4=O)cc3F)cc2c(=O)[nH]1 | 0.25 µg/mL (≈ 0.677 µM) | 0.5 µg/mL (≈ 1.35 µM) | 0.125 µg/mL (≈ 0.338 µM) | 0.25 µg/mL (≈ 0.677 µM) | 0.25 µg/mL (≈ 0.677 µM) | 0.5 µg/mL (≈ 1.35 µM) | 0.25 µg/mL (≈ 0.677 µM) | 0.25 µg/mL (≈ 0.677 µM) | 0.125 µg/mL (≈ 0.338 µM) | 2 µg/mL (≈ 5.41 µM) | 0.5 µg/mL (≈ 1.35 µM) |
| O=C1COc2c(cccc2-c2ccc(N3C[C@H](CO)OC3=O)cc2F)N1 | 8 µg/mL (≈ 22.3 µM) | 1 µg/mL (≈ 2.79 µM) | 2 µg/mL (≈ 5.58 µM) | 32 µg/mL (≈ 89.3 µM) | 8 µg/mL (≈ 22.3 µM) | 16 µg/mL (≈ 44.7 µM) | 8 µg/mL (≈ 22.3 µM) | 2 µg/mL (≈ 5.58 µM) | 8 µg/mL (≈ 22.3 µM) | > 32 µg/mL | 4 µg/mL (≈ 11.2 µM) |
| CC(=O)NC[C@H]1CN(c2ccc(N3CCOCC3)c(F)c2)C(=O)O1 [LINEZOLID] |  | 4 µg/mL (≈ 11.9 µM) |  | 2 µg/mL (≈ 5.93 µM) | 1 µg/mL (≈ 2.96 µM) |  | 0.5 µg/mL (≈ 1.48 µM) |  | 1 µg/mL (≈ 2.96 µM) | 16 µg/mL (≈ 47.4 µM) | 1 µg/mL (≈ 2.96 µM) |
